Experimental data from the NIST ThermoML archive (doi:10.1021/je401080p).
± gives the expanded uncertainty stated by the source. Each block holds one compound with its values, some of them ahead of it.

Key:
[1] = Boiling temperature at pressure P; details: 1.1 kPa, Liquid
[2] = Liquid, Rate of evaporation

Compound: CCCCCCCCCC(=O)OCC(O)COC(=O)CCCCCCCCC [2-hydroxypropane-1,3-diyl bis(decanoate)]
- vapor or sublimation pressure ([2]; 535.66 K): 1 ± 0.1 kPa
- vapor or sublimation pressure ([2]; 538.32 K): 1.1 ± 0.2 kPa
- vapor or sublimation pressure ([2]; 544.06 K): 1.5 ± 0.2 kPa
- vapor or sublimation pressure ([2]; 554.25 K): 2.5 ± 0.2 kPa
- vapor or sublimation pressure ([2]; 558.74 K): 3.1 ± 0.3 kPa
- vapor or sublimation pressure ([2]; 562.37 K): 3.6 ± 0.4 kPa
- vapor or sublimation pressure ([2]; 565.39 K): 4.3 ± 0.5 kPa

Compound: CCCCCCCC(=O)OCC(O)CO (stereo not drawn) [2,3-dihydroxypropyl octanoate]
- vapor or sublimation pressure ([2]; 462.66 K): 1.1 ± 0.1 kPa
- vapor or sublimation pressure ([2]; 468.91 K): 1.5 ± 0.2 kPa
- vapor or sublimation pressure ([2]; 479.02 K): 2.5 ± 0.2 kPa
- vapor or sublimation pressure ([2]; 484.24 K): 3.1 ± 0.4 kPa
- vapor or sublimation pressure ([2]; 485.63 K): 3.6 ± 0.3 kPa
- vapor or sublimation pressure ([2]; 490.19 K): 4.3 ± 0.4 kPa
- vapor or sublimation pressure ([2]; 498.91 K): 6.8 ± 0.6 kPa
- vapor or sublimation pressure ([2]; 507.96 K): 10.1 ± 0.9 kPa
- vapor or sublimation pressure ([2]; 514.64 K): 13.2 ± 1.2 kPa

Compound: CCCCCCCCCC(=O)OCC(O)CO (stereo not drawn) [2,3-dihydroxypropyl decanoate]
- vapor or sublimation pressure ([2]; 478.69 K): 1.1 ± 0.2 kPa
- vapor or sublimation pressure ([2]; 482.79 K): 1.5 ± 0.2 kPa
- vapor or sublimation pressure ([2]; 491.77 K): 2.5 ± 0.3 kPa
- vapor or sublimation pressure ([2]; 497.13 K): 3.1 ± 0.6 kPa
- vapor or sublimation pressure ([2]; 498.31 K): 3.6 ± 0.4 kPa
- vapor or sublimation pressure ([2]; 501.31 K): 4.3 ± 0.4 kPa
- vapor or sublimation pressure ([2]; 511.21 K): 6.8 ± 0.7 kPa
- vapor or sublimation pressure ([2]; 519.1 K): 10.1 ± 1 kPa
- vapor or sublimation pressure ([2]; 524.41 K): 13.2 ± 1.2 kPa

The next lines start with the values.

- Boiling temperature at pressure P ([1]; DSC): 279.5 ± 6.6 °C
Compound: Cc1cc(O)cc2c1OC(C)(CCCC(C)CCCC(C)CCCC(C)C)CC2 (stereo not drawn) [ω-tocopherol]

- vapor or sublimation pressure ([2]; 511.93 K): 1.1 ± 0.2 kPa
- vapor or sublimation pressure ([2]; 517.23 K): 1.5 ± 0.2 kPa
- vapor or sublimation pressure ([2]; 529.42 K): 2.5 ± 0.2 kPa
- vapor or sublimation pressure ([2]; 533.36 K): 3.1 ± 0.3 kPa
- vapor or sublimation pressure ([2]; 538.14 K): 3.6 ± 0.3 kPa
- vapor or sublimation pressure ([2]; 541.18 K): 4.3 ± 0.4 kPa
- vapor or sublimation pressure ([2]; 552.59 K): 6.8 ± 0.5 kPa
- vapor or sublimation pressure ([2]; 560.35 K): 10.1 ± 0.9 kPa
- vapor or sublimation pressure ([2]; 567.73 K): 13.2 ± 1.2 kPa
Compound: CCCCCCCC(=O)OCC(O)COC(=O)CCCCCCC [glycerol 1,3-dicaprylate]

- Boiling temperature at pressure P ([1]; DSC): 274.70 ± 4.7 °C
Compound: Cc1c(O)cc2c(c1C)O[C@](C)(CCC[C@H](C)CCC[C@H](C)CCCC(C)C)CC2 [(R,R,R)-γ-tocopherol]

- Boiling temperature at pressure P ([1]; Rate of evaporation): 276.11 ± 8.4 °C
Compound: Cc1c(C)c2c(c(C)c1O)CC[C@@](C)(CCC[C@H](C)CCC[C@H](C)CCCC(C)C)O2 [(+)-α-tocopherol]

- Boiling temperature at pressure P ([1]; DSC): 279.58 ± 2.9 °C
Compound: Cc1cc(O)c(C)c2c1O[C@](C)(CCC[C@H](C)CCC[C@H](C)CCCC(C)C)CC2 [(R,R,R)-β-tocopherol]
